Non-standard residues stand in square brackets, D forms with d. Residues, ends and D or L forms follow the SMILES beside them. No end group written: not given here. 2Nal = N[C@@H](Cc1ccc2ccccc2c1)C(=O)O; 2Thi = N[C@@H](Cc1cccs1)C(=O)O; β3hL = CC(C)C[C@H](N)CC(=O)O; Nle = CCCC[C@H](N)C(=O)O; βAla = NCCC(=O)O
Key:
[1] = test system: SaOS-2/B10 cells; format: binding; conditions: 2 h
Procedure: SaOS-2/B10 cells were maintained in RPMI1640 medium supplemented with 10% fetal bovine serum (FBS) and 2 mM glutamine at 37° C. in a humidified atmosphere of 5% CO2 in air. The medium was changed every three to four days, and the cells were subcultured every week by trypsinization.
SaOS-2/B10 cells were maintained for four days after they had reached confluence. The medium was replaced with 5% FBS […] medium and incubated for 2 hrs at room temperature with 10×10^4 cpm mono-^125I-[Nle^8,18,Tyr^34(3-^125I)]bPTH(1-34)NH2 in the presence or absence of a competing tested polypeptide of the invention. The cells were washed four times with ice-cold PBS and lysed with 0.1M NaOH, and the radioactivity associated with the cells was counted in a scintillation counter. Synthesis of the radiolabelled [Nle^8,18,Tyr^34(3-^125I)]bPTH(1-34)NH2 was carried out as described in Goldman M. E., et al., Endocrinology, (1988), 123, 1468-1475.
The binding assay was conducted on the polypeptides of the invention having SEQ ID NO:5, 6, 7, 9, 10, 11, and 12.

[2] = test system: adenylate cyclase in SaOS-2/B10 cells; test: Stimulation of adenylate cyclase activity in SaOS-2/B10 cells; format: cell-based; conditions: 1 mM IBMX, 5 min incubation, read-out: EC50 (half maximal stimulation of adenylate cyclase)
Procedure: The adenylate cyclase activity induced by each of the tested polypeptides of the invention was also measured in SaOS-2/B 10 cells as described previously (Rodain et al., J. Clin. Invest. (1983) 72,1511; Goldman, et al., Endocrinology (1988) 123, 1468). Conflúnt SaOS-2/B10 cells in 24 wells plates were incubated with 0.5 μCi [^3H]adenine (26.9 Ci/mmol, New England Nuclear, Boston, Mass. in fresh medium at 37° C. for 2 hrs. and washed twice with Hank's solution. The cells were treated with 1 mM IBMX (isobutylmethylxanthine, Sigma, St. Louis, Mo.) in fresh medium for 15 min. and a tested PTH analog was added to the medium to incubate for 5 min. The reaction was stopped by the addition of 1.2M TCA followed by sample neutralization with 4N KOH. Cyclic AMP was isolated by the two-column chromatographic method (Salomon, et al., Anal. Biochem. (1974) 58, 541). The radioactivity was counted in a scintillation counter (Liquid scintillation counter 2200CA, PACKARD, Downers Grove, Ill.).

[3] = target: T1, recombinant hPTH1-receptor (Homo sapiens, UniProt Q03431); test: Radioreceptor competition binding, 125I-PTH(1-34), HEK293/C21 cells; conditions: 125I-PTH(1-34) ~0.1 nM, 2 h at room temperature
T1 construct: expressed in transfected cells
T1 sequence (Q03431 27-593): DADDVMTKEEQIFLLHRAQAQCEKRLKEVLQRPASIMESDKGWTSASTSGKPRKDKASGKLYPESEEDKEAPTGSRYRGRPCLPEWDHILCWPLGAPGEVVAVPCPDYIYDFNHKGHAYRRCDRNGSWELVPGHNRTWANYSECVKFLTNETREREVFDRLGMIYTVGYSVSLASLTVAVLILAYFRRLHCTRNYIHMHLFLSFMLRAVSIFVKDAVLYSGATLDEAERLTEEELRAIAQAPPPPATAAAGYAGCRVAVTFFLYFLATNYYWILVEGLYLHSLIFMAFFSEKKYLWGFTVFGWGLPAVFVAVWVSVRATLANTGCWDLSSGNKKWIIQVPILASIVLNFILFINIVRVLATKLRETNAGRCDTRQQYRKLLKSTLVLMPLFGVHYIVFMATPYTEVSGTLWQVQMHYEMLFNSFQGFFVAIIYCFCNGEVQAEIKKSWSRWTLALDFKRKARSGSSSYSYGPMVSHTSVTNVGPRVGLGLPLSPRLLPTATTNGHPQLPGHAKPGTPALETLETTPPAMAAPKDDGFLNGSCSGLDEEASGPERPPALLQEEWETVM
Procedure: Human embryonic kidney (HEK293) cells, stably transfected with recombinant hPTH1-receptor (HEK293/C21 cell line, ˜400,000 receptors/cell) (Pines, M., Adams, A. E., Stueckle, S., Bessalle, R., Rashti-Behar, V., Chorev, M., Rosenblatt, M., and Suva, L. J. Endocrinology 1994, 135, 1713-1716), were maintained in D-MEM medium supplemented with 10% fetal bovine serum and […] glutamine at 37° C. in a humidified atmosphere of 95% air/5% CO2. The medium was changed every 3-4 days, and the cells were subcultured every week. Ligand stimulated adenylyl cyclase activity and radioreceptor competition binding assays were performed on confluent cultures, 1-3 days after a change of medium.
[Nle^8,18,Nal^23,Tyr^34]bPTH(1-34)-NH2 was radioiodinated and the crude material was purified as previously described (Roubini, E., Duong, L. T., Gibbons, S. W., Leu, C. T., Caulfield, M. P., Chorev, M., and Rosenblatt, M. Biochemistry 1992, 31, 4026-4033). […] The pure mono-radioiodinated peptide was isolated on an analytical RP-HPLC Vydac Protein C18 column (The Separation Group, Hesperia, Calif.) employing a linear gradient of 36-42% B in A for 30 min (A, 0.1% TFA in water; B, 0.1% TFA in acetonitrile) at a flow rate of 1 mL/min, and monitored at 220 nm. […]

[4] = test system: PTH-stimulated adenylate cyclase; conditions: background, literature report; cited from earlier work
[5] = test system: renal PTH receptors; conditions: background, literature report; cited from earlier work

Compound	IC50 [1]	EC50 [2]	further results
CC[C@H](C)[C@H](NC(=O)[C@H](CO)NC(=O)[C@H](CCCCN)NC(=O)CNC(=O)[C@H](CCCCN)NC(=O)[C@H](CC(=O)O)NC(=O)[C@H](Cc1c[nH]cn1)NC(=O)[C@H](CC(C)C)NC(=O)[C@H](CC(C)C)NC(=O)[C@H](CCC(N)=O)NC(=O)[C@H](Cc1c[nH]cn1)NC(=O)[C@H](CCC(=O)O)NC(=O)[C@H](CO)NC(=O)[C@@H](NC(=O)[C@H](C)N)C(C)C)C(=O)N[C@@H](CCC(N)=O)C(=O)N[C@@H](CC(=O)O)C(=O)N[C@@H](CC(C)C)C(=O)N[C@@H](CCCNC(=N)N)C(=O)N[C@@H](CCCNC(=N)N)C(=O)N[C@@H](CCCNC(=N)N)C(=O)N[C@@H](CCC(=O)O)C(=O)N[C@@H](CC(C)C)C(=O)N[C@@H](CC(C)C)C(=O)N[C@@H](CCC(=O)O)C(=O)N[C@@H](CCCCN)C(=O)N[C@@H](CC(C)C)C(=O)N[C@@H](CC(C)C)C(=O)N[C@@H](CCC(=O)O)C(=O)N[C@@H](CCCCN)C(=O)N[C@@H](CC(C)C)C(=O)N[C@@H](Cc1cccs1)C(=O)N[C@H](C(=O)N[C@@H](C)C(N)=O)[C@@H](C)O [SEQ ID NO: 9, [Glu^22,25,29,Leu^23,28,31,Lys^26,30,Thi^32]hPTHrP(1–34)NH2] (H-AVSEHQLLHDKGKSIQDLRRRELLEKLLEKL[2Thi]TA-NH2; N-terminus assumed)	90 nM	10 nM	–
CCCC[C@H](NC(=O)[C@H](Cc1ccccc1)NC(=O)[C@H](CCC(N)=O)NC(=O)[C@@H](NC(=O)[C@H](CCC(=O)O)NC(=O)[C@H](CO)NC(=O)[C@@H](NC(=O)[C@H](C)N)C(C)C)[C@@H](C)CC)C(=O)N[C@@H](Cc1c[nH]cn1)C(=O)N[C@@H](CC(N)=O)C(=O)N[C@@H](CC(C)C)C(=O)NCC(=O)N[C@@H](CCCCN)C(=O)N[C@@H](Cc1c[nH]cn1)C(=O)N[C@@H](CC(C)C)C(=O)N[C@@H](CO)C(=O)NCCC(=O)N[C@H](CC(=O)NCCC(=O)N[C@@H](CCCNC(=N)N)C(=O)N[C@H](C(=O)N[C@@H](CCC(=O)O)C(=O)N[C@@H](Cc1ccc2ccccc2c1)C(=O)N[C@@H](CC(C)C)C(=O)N[C@@H](CCCNC(=N)N)C(=O)N[C@@H](CCCCN)C(=O)N[C@@H](CCCCN)C(=O)N[C@@H](CC(C)C)C(=O)N[C@@H](CCC(N)=O)C(=O)N[C@@H](CC(=O)O)C(=O)N[C@H](C(=O)N[C@@H](Cc1c[nH]cn1)C(=O)N[C@@H](CC(N)=O)C(=O)N[C@@H](Cc1ccc(O)cc1)C(N)=O)C(C)C)C(C)C)CC(C)C [SEQ ID NO: 17, [Nle^8,β-Ala^17,19,β-hLeu^18,Nal^23,Tyr^34]bPTH(1–34)NH2] (H-AVSEIQF[Nle]HNLGKHLS[βAla][β3hL][βAla]RVE[2Nal]LRKKLQDVHNY-NH2; N-terminus assumed)	–	–	IC50 [3]: > 1000 nM
AVSEHQLLHDKGKSIQDLRRREFLEKLIEKIHTA-NH2 [SEQ ID NO: 12, [Glu^22,25,29,Lys^26,30]hPTHrP(1–34)NH2]	5.5 nM	0.42 nM	–
AVSEHQLLHDKGKSIQDLRRRELLEKLLELLHTA-NH2 [SEQ ID NO: 10, [Glu^22,25,29,Leu^23,28,30,31,Lys^26]hPTHrP(1–34)NH2]	70 nM	5 nM	–
AVSEHQLLHDKGKSIQDLRRRFLLHHLLAELHTA-NH2 [SEQ ID NO: 11, [Leu^23,28,31]hPTHrP(1–34)NH2]	18.3 nM	0.74 nM	–
PTH(1 -25) (SVSEIQLMHNLGKHLNSMERVEWLR; Parathyroid hormone; UniProt P01270 32-56, looked up, fragment) [carboxyl-terminally truncated PTH fragment of residues 1-25]	–	–	activity of carboxyl-terminally truncated PTH [4]: essentially inactive
PTH(25-34) (RKKLQDVHNF; Parathyroid hormone; UniProt P01270 56-65, looked up, fragment) [PTH fragment of residues 25-34]	–	–	receptor binding / affinity for renal PTH receptors [5]: weak receptor binding activity
SVSEIQLMHNLGKHLNSMERVELLEKLLEKLHNF-NH2 [SEQ ID NO: 5, [Glu^25,29,Leu^23,27,31,Lys^30]hPTH(1–34)NH2]	216 nM	24 nM	–
SVSEIQLMHNLGKHLNSMERVELLRKLLQDLHNF-NH2 [SEQ ID NO: 7, [Leu^23,27,31]hPTH(1–34)NH2]	41 nM	1.12 nM	–
SVSEIQLMHNLGKHLNSMERVEWLEKKLEKVHNF-NH2 [SEQ ID NO: 6, [Glu^25,29,Lys^30]hPTH(1–34)NH2]	30 nM	25.5 nM	–
[Tyr^34]bPTH(7-34)NH2	–	–	receptor binding / affinity for renal PTH receptors [5]: moderate affinity; agonist activity [4]: does not have any agonist activity

Reference: patent publication US7799757B2, “Analogs of parathyroid hormone and PTH-related protein as bone anabolic agents” (priority 2002, dated 2010)
